According to BindingDB's records for doi:10.1016/s0960-894x(01)00092-0 (Novartis Pharma, 2001):

Legend:
[1] = Inhibitory concentration against Selectin E in a dynamic flow assay.
[2] = as above; remark: listed apart in the source

Compound	IC50 [1]	IC50 [2]
C[C@@H]1O[C@@H](O[C@@H]2[C@H](CO)OCC[C@H]2O[C@@H]2O[C@@H](CO)[C@H](O)[C@H](O[C@@H](CC3CCCCC3)C(=O)O)[C@@H]2O)[C@@H](O)[C@@H](O)[C@@H]1O [Sodium; (R)-3-cyclohexyl-2-{3,5-dihydroxy-2-hydroxymethyl-6-[2-hydroxymethyl-3-(3,4,5-trihydroxy-6-methyl-tetrahydro-pyran-2-yloxy)-tetrahydro-pyran-4-yloxy]-tetrahydro-pyran-4-yloxy}-propionate]	30 µM	
COC(=O)CCCCCCCCO[C@@H]1O[C@@H](CO)[C@@H](O[C@@H]2O[C@@H](CO)[C@H](O)[C@H](O[C@@H](CC3CCCCC3)C(=O)O)[C@@H]2O)[C@H](O[C@@H]2O[C@@H](C)[C@@H](O)[C@H](O)[C@@H]2O)[C@@H]1NC(=O)c1ccc(OC)c(OC)c1 [Sialyl Lewis X Analogue]		10 µM
